ChEMBL document CHEMBL3608284, “C4 phenyl aporphines with selective h5-HT(2B) receptor affinity” (Bioorg Med Chem Lett, 2015)

Tests used:
[1] = biological target: Beta-1 adrenergic receptor (Homo sapiens) (UniProt P08588); test: Binding affinity to beta1 adrenoceptor (unknown origin) at 10 uM
[2] = biological target: D(2) dopamine receptor (Homo sapiens) (UniProt P14416); test: Binding affinity to dopamine D2 receptor (unknown origin) at 10 uM
[3] = biological target: Alpha-1B adrenergic receptor (Homo sapiens) (UniProt P35368); test: Binding affinity to alpha1B adrenoceptor (unknown origin) at 10 uM
[4] = biological target: T1, 5-hydroxytryptamine receptor 1A (Homo sapiens) (UniProt P08908); test: Displacement of [3H]-8-OH-DPAT from 5HT1A receptor (unknown origin) at 10 uM
T1 sequence (whole entry): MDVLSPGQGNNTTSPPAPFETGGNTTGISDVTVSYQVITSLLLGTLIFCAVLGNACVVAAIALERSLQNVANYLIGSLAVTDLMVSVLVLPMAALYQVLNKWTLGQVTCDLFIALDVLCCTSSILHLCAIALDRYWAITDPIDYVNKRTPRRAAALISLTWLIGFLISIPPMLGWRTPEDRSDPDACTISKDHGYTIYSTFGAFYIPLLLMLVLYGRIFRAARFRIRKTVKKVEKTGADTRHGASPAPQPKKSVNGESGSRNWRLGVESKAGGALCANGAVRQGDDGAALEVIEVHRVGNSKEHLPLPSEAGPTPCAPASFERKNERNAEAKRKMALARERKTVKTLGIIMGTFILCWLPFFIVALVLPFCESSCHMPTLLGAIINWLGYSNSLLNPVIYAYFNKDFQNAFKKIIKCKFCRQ

Rattus norvegicus = species: Rattus norvegicus; test: Binding affinity to benzodiazepine receptor in rat brain; assay type: tissue-based; settings: concentration not given here
[5] = biological target: GABA-A receptor; agonist GABA site (Homo sapiens) (UniProt P14867+P47870+P28472+P48169+P34903+P18505+P47869+P31644+Q16445); test: Binding affinity to GABAA receptor (unknown origin) at 10 uM; assay type: protein-complex assay
[6] = biological target: Mu-type opioid receptor (Homo sapiens) (UniProt P35372); test: Binding affinity to MOR (unknown origin) at 10 uM
Sequence of Mu-type opioid receptor (Homo sapiens) (P35372 whole entry): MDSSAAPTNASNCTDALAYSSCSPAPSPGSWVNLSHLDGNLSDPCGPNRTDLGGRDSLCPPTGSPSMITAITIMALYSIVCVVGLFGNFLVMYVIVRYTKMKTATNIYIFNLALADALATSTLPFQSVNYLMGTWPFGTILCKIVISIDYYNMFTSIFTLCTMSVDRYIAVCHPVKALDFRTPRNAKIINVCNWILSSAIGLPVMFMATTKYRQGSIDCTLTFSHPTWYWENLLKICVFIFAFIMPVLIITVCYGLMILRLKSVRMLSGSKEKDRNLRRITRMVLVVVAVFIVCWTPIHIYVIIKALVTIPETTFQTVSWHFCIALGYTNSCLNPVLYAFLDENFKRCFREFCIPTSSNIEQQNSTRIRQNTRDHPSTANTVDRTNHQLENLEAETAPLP

[7] = biological target: 5-hydroxytryptamine receptor 2B (Homo sapiens, UniProt P41595); test: Displacement of [3H]LSD from 5HT2B receptor (unknown origin) at 10 uM
Sequence of 5-hydroxytryptamine receptor 2B (P41595 whole entry): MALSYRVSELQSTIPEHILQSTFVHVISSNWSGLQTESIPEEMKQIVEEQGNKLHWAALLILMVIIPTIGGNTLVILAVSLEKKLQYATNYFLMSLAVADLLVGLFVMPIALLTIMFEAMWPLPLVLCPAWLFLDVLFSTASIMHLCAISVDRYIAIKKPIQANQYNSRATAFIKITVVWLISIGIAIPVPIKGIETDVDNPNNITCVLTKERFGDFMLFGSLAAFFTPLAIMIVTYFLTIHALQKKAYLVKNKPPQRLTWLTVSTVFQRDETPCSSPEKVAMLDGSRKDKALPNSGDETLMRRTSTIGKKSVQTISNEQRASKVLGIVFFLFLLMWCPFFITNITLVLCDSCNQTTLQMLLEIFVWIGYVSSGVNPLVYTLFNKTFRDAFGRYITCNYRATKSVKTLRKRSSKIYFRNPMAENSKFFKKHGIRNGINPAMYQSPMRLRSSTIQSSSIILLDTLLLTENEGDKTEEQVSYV

[8] = biological target: Histamine H3 receptor (Homo sapiens) (UniProt Q9Y5N1); test: Binding affinity to histamine H3 receptor (unknown origin) at 10 uM
Sequence of Histamine H3 receptor (Homo sapiens) (Q9Y5N1 whole entry): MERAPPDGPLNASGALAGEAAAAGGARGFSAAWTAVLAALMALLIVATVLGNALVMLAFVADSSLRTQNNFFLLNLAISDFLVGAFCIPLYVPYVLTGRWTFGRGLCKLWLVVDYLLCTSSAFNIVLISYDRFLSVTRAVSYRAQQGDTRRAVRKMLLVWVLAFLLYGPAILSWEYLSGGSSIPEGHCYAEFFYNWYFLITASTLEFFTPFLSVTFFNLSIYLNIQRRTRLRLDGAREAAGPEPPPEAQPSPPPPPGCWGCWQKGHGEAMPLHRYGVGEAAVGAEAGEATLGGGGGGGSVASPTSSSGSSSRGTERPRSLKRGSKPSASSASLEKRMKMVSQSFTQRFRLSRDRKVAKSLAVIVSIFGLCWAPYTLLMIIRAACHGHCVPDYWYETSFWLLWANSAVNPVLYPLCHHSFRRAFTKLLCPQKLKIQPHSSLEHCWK

[9] = biological target: Muscarinic acetylcholine receptor M3 (Homo sapiens) (UniProt P20309); test: Binding affinity to muscarinic M3 receptor (unknown origin) at 10 uM
Sequence of Muscarinic acetylcholine receptor M3 (Homo sapiens) (P20309 whole entry, looked up): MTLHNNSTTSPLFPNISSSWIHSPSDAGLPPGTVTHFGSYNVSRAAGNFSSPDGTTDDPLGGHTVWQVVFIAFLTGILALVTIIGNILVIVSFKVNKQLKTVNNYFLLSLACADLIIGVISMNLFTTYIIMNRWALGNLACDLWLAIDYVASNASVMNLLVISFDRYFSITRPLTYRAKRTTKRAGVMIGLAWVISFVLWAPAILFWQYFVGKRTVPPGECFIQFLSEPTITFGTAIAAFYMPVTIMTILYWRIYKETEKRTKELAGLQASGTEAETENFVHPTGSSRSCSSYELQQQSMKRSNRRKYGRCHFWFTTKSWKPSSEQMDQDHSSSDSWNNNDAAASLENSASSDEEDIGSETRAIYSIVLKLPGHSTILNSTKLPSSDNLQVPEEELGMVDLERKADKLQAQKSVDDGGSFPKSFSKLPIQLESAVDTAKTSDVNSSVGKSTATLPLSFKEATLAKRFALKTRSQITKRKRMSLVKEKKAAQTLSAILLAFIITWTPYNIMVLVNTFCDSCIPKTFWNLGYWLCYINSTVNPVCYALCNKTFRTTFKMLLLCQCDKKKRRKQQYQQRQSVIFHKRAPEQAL

[10] = biological target: D(1A) dopamine receptor (Homo sapiens) (UniProt P21728); test: Binding affinity to dopamine D1 receptor (unknown origin) at 10 uM
[11] = biological target: Sodium-dependent serotonin transporter (Homo sapiens) (UniProt P31645); test: Binding affinity to SERT (unknown origin) at 10 uM
Sequence of Sodium-dependent serotonin transporter (Homo sapiens) (P31645 whole entry, looked up): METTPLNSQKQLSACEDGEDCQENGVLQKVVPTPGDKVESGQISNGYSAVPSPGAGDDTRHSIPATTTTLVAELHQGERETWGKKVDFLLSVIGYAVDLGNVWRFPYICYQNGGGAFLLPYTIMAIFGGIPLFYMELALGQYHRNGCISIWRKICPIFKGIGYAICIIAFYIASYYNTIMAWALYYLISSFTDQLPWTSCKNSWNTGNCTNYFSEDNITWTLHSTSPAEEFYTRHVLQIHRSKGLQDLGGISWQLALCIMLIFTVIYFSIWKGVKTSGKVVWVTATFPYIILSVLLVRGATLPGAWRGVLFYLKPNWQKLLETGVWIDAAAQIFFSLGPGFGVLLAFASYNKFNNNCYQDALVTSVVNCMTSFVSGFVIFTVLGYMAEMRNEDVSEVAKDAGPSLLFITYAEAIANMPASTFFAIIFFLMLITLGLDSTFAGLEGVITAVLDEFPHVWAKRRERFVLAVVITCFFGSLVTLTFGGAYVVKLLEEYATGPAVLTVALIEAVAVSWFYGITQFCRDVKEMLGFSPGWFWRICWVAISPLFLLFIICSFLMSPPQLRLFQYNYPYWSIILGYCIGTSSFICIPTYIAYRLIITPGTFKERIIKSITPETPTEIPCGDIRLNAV

[12] = biological target: Alpha-2B adrenergic receptor (Homo sapiens, UniProt P18089); test: Binding affinity to alpha2B adrenoceptor (unknown origin)
[13] = biological target: Beta-2 adrenergic receptor (Homo sapiens) (UniProt P07550); test: Binding affinity to beta2 adrenoceptor (unknown origin) at 10 uM
Sequence of Beta-2 adrenergic receptor (Homo sapiens) (P07550 whole entry, looked up): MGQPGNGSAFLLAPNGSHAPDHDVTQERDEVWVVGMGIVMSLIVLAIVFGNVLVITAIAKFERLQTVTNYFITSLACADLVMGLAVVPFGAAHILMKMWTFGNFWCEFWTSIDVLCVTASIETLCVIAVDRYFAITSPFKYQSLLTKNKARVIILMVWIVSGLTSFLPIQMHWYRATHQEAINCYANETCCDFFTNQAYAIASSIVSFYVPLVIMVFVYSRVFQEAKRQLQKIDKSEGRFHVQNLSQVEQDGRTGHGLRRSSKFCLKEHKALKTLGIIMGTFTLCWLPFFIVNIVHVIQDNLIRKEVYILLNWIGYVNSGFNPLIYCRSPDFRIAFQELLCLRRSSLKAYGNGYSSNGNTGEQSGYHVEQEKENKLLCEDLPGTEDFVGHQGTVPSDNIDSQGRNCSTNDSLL

[14] = biological target: 5-hydroxytryptamine receptor 7 (Homo sapiens) (UniProt P34969); test: Displacement of [3H]LSD from 5HT7 receptor (unknown origin) at 10 uM
[15] = biological target: 5-hydroxytryptamine receptor 1B (Homo sapiens, UniProt P28222); test: Displacement of [3H]GR125743 from 5HT1B receptor (unknown origin) at 10 uM
[16] = biological target: Glutamate NMDA receptor; GRIN1/GRIN2A (Homo sapiens) (UniProt Q05586+Q12879); test: Binding affinity to NMDA receptor (unknown origin) at 10 uM; assay type: protein-complex assay
[17] = biological target: D(3) dopamine receptor (Homo sapiens) (UniProt P35462); test: Binding affinity to dopamine D3 receptor (unknown origin) at 10 uM
[18] = biological target: D(1B) dopamine receptor (Homo sapiens) (UniProt P21918); test: Binding affinity to dopamine D5 receptor (unknown origin) at 10 uM
[19] = biological target: Cannabinoid receptor 2 (Homo sapiens) (UniProt P34972); test: Binding affinity to CB2 receptor (unknown origin) at 10 uM
[20] = biological target: Sodium-dependent dopamine transporter (Homo sapiens) (UniProt Q01959); test: Binding affinity to DAT (unknown origin) at 10 uM
[21] = biological target: T2, 5-hydroxytryptamine receptor 2C (Homo sapiens) (UniProt P28335); test: Displacement of [3H]mesulergine from 5HT2C receptor (unknown origin) at 10 uM
T2 sequence (whole entry): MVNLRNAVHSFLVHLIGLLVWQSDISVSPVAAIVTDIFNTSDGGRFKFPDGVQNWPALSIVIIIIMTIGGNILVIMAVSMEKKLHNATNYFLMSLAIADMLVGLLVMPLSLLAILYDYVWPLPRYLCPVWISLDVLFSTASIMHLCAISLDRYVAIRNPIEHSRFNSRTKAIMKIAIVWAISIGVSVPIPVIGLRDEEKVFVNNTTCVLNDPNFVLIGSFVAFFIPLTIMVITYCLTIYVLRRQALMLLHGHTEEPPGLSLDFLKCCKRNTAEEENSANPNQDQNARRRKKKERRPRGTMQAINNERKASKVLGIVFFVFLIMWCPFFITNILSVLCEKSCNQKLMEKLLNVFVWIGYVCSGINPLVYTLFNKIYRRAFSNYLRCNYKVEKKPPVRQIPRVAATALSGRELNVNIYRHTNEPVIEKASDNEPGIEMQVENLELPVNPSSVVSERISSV

[22] = biological target: Delta-type opioid receptor (Homo sapiens) (UniProt P41143); test: Binding affinity to DOR (unknown origin) at 10 uM
Sequence of Delta-type opioid receptor (Homo sapiens) (P41143 whole entry): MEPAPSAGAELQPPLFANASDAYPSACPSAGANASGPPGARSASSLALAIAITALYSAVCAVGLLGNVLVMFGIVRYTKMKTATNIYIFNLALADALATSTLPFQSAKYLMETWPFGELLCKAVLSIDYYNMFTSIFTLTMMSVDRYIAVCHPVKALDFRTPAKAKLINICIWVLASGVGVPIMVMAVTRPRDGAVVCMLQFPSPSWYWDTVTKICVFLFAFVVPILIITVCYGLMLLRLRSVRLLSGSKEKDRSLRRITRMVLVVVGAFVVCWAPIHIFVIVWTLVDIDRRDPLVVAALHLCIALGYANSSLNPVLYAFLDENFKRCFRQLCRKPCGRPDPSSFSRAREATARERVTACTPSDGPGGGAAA

[23] = biological target: Histamine H4 receptor (Homo sapiens) (UniProt Q9H3N8); test: Binding affinity to histamine H4 receptor (unknown origin) at 10 uM
[24] = biological target: Muscarinic acetylcholine receptor M2 (Homo sapiens) (UniProt P08172); test: Binding affinity to muscarinic M2 receptor (unknown origin) at 10 uM
[25] = biological target: 5-hydroxytryptamine receptor 2A (Homo sapiens) (UniProt P28223); test: Displacement of [3H]ketanserin from 5HT2A receptor (unknown origin) at 10 uM
Sequence of 5-hydroxytryptamine receptor 2A (Homo sapiens) (P28223 whole entry): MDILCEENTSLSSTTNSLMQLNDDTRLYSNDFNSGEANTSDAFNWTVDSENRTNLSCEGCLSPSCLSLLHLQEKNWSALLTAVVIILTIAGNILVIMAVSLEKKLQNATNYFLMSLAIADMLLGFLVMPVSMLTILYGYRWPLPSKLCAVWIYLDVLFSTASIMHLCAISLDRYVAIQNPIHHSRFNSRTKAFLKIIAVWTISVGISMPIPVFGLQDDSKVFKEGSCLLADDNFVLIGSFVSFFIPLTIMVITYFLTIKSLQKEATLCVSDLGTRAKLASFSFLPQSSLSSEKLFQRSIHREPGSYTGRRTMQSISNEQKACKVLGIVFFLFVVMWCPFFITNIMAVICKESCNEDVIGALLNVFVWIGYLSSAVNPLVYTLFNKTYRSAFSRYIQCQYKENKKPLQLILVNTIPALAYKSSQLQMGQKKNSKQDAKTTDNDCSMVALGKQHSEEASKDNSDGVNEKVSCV

[26] = biological target: Muscarinic acetylcholine receptor M5 (Homo sapiens) (UniProt P08912); test: Binding affinity to muscarinic M5 receptor (unknown origin) at 10 uM
[27] = biological target: Sodium-dependent noradrenaline transporter (Homo sapiens) (UniProt P23975); test: Binding affinity to NET (unknown origin) at 10 uM
Sequence of Sodium-dependent noradrenaline transporter (Homo sapiens) (P23975 whole entry): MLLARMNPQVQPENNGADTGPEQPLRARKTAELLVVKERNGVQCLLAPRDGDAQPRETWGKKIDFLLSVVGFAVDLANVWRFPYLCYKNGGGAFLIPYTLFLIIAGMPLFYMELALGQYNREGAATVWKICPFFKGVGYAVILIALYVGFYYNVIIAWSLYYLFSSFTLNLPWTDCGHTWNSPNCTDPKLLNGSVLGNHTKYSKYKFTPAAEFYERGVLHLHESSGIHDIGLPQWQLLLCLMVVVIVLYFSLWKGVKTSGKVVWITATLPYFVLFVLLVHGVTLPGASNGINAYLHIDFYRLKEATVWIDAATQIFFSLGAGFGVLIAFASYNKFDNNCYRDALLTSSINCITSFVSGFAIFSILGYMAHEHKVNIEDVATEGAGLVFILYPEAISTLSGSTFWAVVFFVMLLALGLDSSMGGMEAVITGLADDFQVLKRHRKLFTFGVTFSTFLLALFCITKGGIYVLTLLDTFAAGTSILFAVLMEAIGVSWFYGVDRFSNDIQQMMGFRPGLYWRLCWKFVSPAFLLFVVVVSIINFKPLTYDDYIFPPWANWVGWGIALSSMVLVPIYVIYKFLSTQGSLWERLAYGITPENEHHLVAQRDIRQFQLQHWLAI

Translocator protein = Translocator protein (Homo sapiens, UniProt P30536); test: Binding affinity to PBR (unknown origin)
[28] = biological target: Muscarinic acetylcholine receptor M1 (Homo sapiens, UniProt P11229); test: Binding affinity to muscarinic M1 receptor (unknown origin)
Sequence of Muscarinic acetylcholine receptor M1 (P11229 whole entry): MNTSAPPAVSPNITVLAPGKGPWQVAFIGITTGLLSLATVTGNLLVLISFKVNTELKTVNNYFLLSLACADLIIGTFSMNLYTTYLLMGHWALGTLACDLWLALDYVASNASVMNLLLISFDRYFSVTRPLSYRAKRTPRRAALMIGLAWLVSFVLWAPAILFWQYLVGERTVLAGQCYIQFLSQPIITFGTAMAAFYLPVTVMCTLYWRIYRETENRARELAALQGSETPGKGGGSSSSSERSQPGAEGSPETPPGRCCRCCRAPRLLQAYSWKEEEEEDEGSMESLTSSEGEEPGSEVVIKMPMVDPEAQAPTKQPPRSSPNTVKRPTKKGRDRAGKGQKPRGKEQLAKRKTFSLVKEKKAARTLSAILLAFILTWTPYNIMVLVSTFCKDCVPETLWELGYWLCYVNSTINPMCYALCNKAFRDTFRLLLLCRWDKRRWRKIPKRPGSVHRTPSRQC

[29] = biological target: Muscarinic acetylcholine receptor M4 (Homo sapiens) (UniProt P08173); test: Binding affinity to muscarinic M4 receptor (unknown origin) at 10 uM

`COc1cc2c3c(c1OC)-c1cc4c(cc1CC3N(C)CC2c1ccccc1)OCO4` (stereo unspecified) was tested, and the inhibition [1] was less than 50%, the inhibition [2] was less than 50% and the inhibition [3] was less than 50%. The inhibition [4] was 5.5%, the inhibition (Rattus norvegicus) was less than 50% and the inhibition [5] was less than 50%. The inhibition [6] was less than 50%, the inhibition [7] was 92.2% and the inhibition [8] was less than 50%. For the same molecule, the inhibition [9] was less than 50%, the inhibition [10] was less than 50% and the inhibition [11] was less than 50%. It also gave a Ki [12] of 3.22 µM, an inhibition [13] of less than 50% and an inhibition [14] of 36.1%. It also gave an inhibition [15] of 22.6%, an inhibition [16] of less than 50% and an inhibition [17] of less than 50%. For the same molecule, the inhibition [18] was less than 50%, the inhibition [19] was less than 50% and the inhibition [20] was less than 50%. For the same molecule, the inhibition [21] was 31.9%, the inhibition [22] was less than 50% and the inhibition [23] was less than 50%. It also gave an inhibition [24] of less than 50%, an inhibition [25] of 33.5% and an inhibition [26] of less than 50%. For the same molecule, the inhibition [27] was less than 50%, the Ki (Translocator protein) was 2.9 µM and the Ki [28] was greater than 10 µM. For the same molecule, the inhibition [29] was less than 50%.
